The values that follow come from patent US4602025A, “Aromatase inhibitors” (Eli Lilly and Company, priority 1984, dated 1986).

The EC50 is the concentration needed to bring the measured effect to its halfway point. Low values mean greater potency, high ones weaker potency.

One assay has as its target T1, aromatase (Rattus norvegicus, UniProt P22443).
T1 sequence (P22443 1-508): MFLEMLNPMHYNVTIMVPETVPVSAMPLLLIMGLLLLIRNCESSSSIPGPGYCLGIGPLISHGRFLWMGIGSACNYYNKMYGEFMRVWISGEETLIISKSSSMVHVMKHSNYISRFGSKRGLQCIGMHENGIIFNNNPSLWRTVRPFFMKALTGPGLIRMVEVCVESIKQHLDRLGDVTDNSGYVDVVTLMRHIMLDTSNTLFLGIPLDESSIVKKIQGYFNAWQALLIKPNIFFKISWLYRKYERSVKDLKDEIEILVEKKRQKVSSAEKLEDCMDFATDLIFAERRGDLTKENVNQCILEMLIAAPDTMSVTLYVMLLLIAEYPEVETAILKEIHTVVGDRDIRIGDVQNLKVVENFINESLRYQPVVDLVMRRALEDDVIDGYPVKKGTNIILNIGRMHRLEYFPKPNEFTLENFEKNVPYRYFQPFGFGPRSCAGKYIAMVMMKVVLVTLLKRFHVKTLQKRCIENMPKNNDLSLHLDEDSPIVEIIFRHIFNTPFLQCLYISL
As to the kind of experiment: biochemical. As to conditions: rat ovarian microsomes; substrate (androstenedione) concentration 0.1 μM; inhibitors tested between 0.005 and 10 μM.

The subject of another assay is breast cancer. The note with it: known aromatase inhibitors; Cancer Research, Vol. 42, Suppl. 8:3261s (1982); cited from earlier work.

Procedure for aromatase: In this test system, ovarian microsomes are obtained from rats treated with pregnant mares serum gonadotropin. Test compounds are added to reaction vials containing 0.1 μM 4-androstene-3,17-dione, 100,000 dpm 1,2[^3 H]-androstenedione, the microsomes and a NADPH generating system.

Turning to `Clc1ccc(C(c2ccc(Cl)cc2)(c2ccns2)n2cncn2)cc1` [Example 7, 1-[Bis(4-chlorophenyl)-5-isothiazolemethyl]-1H-1,2,4-triazole], on aromatase, the EC50 is 51 nM.

`c1ccc(C(c2ccccc2)(c2ccns2)n2cncn2)cc1` [Example 2, 5-(Diphenyl-1H-1,2,4-triazol-1-ylmethyl)-isothiazole] gave an EC50 at aromatase of 257 nM.

For the compound `CCC1(c2ccc(N)cc2)CCC(=O)NC1=O` (stereo not shown) [aminoglutethimide], the “effect in treatment of breast cancer” value in the assay on breast cancer was “beneficial effect”.

On to `C[C@]12C=CC(=O)C=C1CC[C@@H]1[C@@H]2CC[C@]2(C)OC(=O)CC[C@@H]12` [testolactone], for which, in the assay with breast cancer, the “effect in treatment of breast cancer” value is reported as “beneficial effect”.
